Legend:
[1] = Acute toxicity test (i.v. administration in mice), LD50 by Probit method; assay type: in vivo; details: i.v. into tail vein, male mice, 15 days observation
Method: Groups of 5 […] male mice, of 4 weeks of age and weighing 14-18 g, starved overnight before trial, were treated with serial doses of the SPA-S-753-cholesterol sulphate complex (prepared as described in Example 1) and with the not complexed SPA-S-753 for comparison. The two products, dissolved in 5% glucose solution and diluted to the required concentrations, were injected by i.v. route into a tail vein, at a constant volume of 2 ml/kg and over the time of 30-40 seconds. The animals were then kept under observation for 15 days, while changes in behaviour and mortality were recorded.

[2] = Pharmacokinetics test (i.v.): serum and kidney concentrations, microbiological determination; assay type: in vivo, Sprague-Dawley rats; details: 2 hours after single i.v. dose equivalent to 1.25 mg/kg
Method: Two groups of 5 Sprague-Dawley male rats were treated by i.v. route with a single dose equivalent to 1.25 mg/kg of SPA-S-753-cholesterol sulphate complex and of not complexed SPA-S-753 for comparison, with a method similar to that described above. 2 hours following treatments the animals were killed, and the serum and kidneys were collected according to the ordinary procedures. The antibiotic was determined by the microbiological method on the pooled serums and organ homogenates from the 2 groups, the Saccharomyces cerevisiae growth inhibition zones being measured against those produced by antibiotic standard solutions (PYG-agar medium, incubation of 18 h at 30° C.). The antibiotic concentrations found were as follows: 2.6 μg/ml in serum and 4.0 μg/g in the case of SPA-S-753 alone, and 2.4 μg/ml in serum and 0.8 μg/g in the kidneys in the case of SPA-S-753-cholesterol sulphate complex.

[3] = Precipitation at the site of injection after intramuscular administration and tolerance; assay type: in vivo
[4] = compared with partricin; cited from earlier work
[5] = cited from earlier work

N'-dimethylaminoacetylpartricin A dimethylaminoethylamide diaspartate [SPA-S-753]
acute toxicity index, lethal dose in 50% of the animals (LD50) [1]: 46 to 64 mg/kg | antibiotic concentration in kidneys ([2]; organ homogenates): 4.0 µg/g | antibiotic concentration in serum ([2]; pooled serum): 2.6 µg/mL | precipitation on intramuscular administration [3]: partial precipitation | tolerance ([3]; systemic and local, versus uncomplexed SPA-S-753): negative influence on tolerance of the product | toxicity [4]: definitely much lower than that of partricin | water-solubility [5]: high water-solubility

Source: patent publication US6143726A, “Complexes of N'-dimethylaminoacetylpartricin A dimethylaminoethylamide, or the salts thereof, and cholesterol 3-sulphate” (priority 1996, dated 2000)
